Experimental findings from ChEMBL document CHEMBL1152887, “Identification of novel and potent 2-amino benzamide derivatives as allosteric glucokinase activators” (Bioorg Med Chem Lett, 2009) are described below.

In data set [1] the target is T1, Hexokinase-4 (Homo sapiens, UniProt P35557).
T1 sequence (P35557 whole entry): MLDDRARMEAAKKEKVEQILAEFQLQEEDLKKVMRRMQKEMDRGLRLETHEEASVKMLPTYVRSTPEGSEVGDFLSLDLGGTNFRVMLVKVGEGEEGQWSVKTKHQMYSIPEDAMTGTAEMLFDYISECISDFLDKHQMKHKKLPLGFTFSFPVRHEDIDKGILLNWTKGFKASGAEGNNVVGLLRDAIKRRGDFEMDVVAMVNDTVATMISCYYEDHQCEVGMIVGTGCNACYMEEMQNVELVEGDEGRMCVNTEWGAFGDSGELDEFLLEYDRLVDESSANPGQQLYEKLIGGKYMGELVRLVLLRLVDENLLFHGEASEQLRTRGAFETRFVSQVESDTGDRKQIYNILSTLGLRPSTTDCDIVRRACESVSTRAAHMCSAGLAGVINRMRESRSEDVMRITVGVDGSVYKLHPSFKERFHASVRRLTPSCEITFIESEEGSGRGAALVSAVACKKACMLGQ

Data set [2] deals with T1, Hexokinase-4. This is another data set of the same source.
A short description of data set [3]: Cmax in Wistar rat at 1 mg/kg, iv and 3 mg/kg, po. The format is ADME, organism-based. The following applies: in vivo.
For a further data set, the system named is Rattus norvegicus. Briefly: Glucose lowering effect in po dosed Wistar rat assessed as decrease in plasma glucose level administered 30 mins before glucose challenge by OGTT. The format is functional, organism-based.
Data set [4] in a line: Half life in Wistar rat at 1 mg/kg, iv. In kind it is ADME, organism-based. Details: dose 1 mg/kg, route intravenous. To be noted: in vivo.
Data set [5] in a line: Clearance in Wistar rat at 1 mg/kg, iv and 3 mg/kg, po. The format is ADME, organism-based. To be noted: in vivo.
Data set [6] can be described thus: Oral bioavailability in Wistar rat at 3 mg/kg. The following applies: in vivo. The format is ADME, organism-based.
Data set [7] in a line: Volume of distribution in Wistar rat at 1 mg/kg, iv and 3 mg/kg, po. The format is ADME, organism-based. To be noted: in vivo.
Data set [8] can be described thus: Tmax in Wistar rat at 1 mg/kg, iv and 3 mg/kg, po. The following applies: in vivo. In kind it is ADME, organism-based.

Take `Cc1cnc(NC(=O)c2cc(Sc3nncn3C)ccc2N)s1`: the EC50 (as a rule, the concentration needed to bring the measured effect to its halfway point) was 0.33 µM at Hexokinase-4 [1] and 0.11 µM on Hexokinase-4 [2].
On the same counts, the results for `Cc1csc(NC(=O)c2cc(Sc3nccn3C)ccc2N)n1` are 0.23 µM and 0.1 µM.
In the case of `Cc1csc(NC(=O)c2cc(Sc3ccccc3)ccc2N)n1`, the concentration giving a half-maximal response (EC50) worked out at 0.92 µM on Hexokinase-4 [1] and 0.2 µM at Hexokinase-4 [2].
As for `Cn1cnnc1Sc1ccc(N)c(C(=O)Nc2ncns2)c1`, the concentration for a half-maximal effect (EC50) on Hexokinase-4 [1] is 0.49 µM; at Hexokinase-4 [2] it was 0.12 µM.
The like results for `Cn1cnnc1Sc1ccc(N)c(C(=O)Nc2nc(C(F)(F)F)cs2)c1` were, in that order, 2.7 µM and 0.93 µM.
The like results for `Cn1cnnc1Sc1ccc(N)c(C(=O)Nc2ccncc2)c1` were, in that order, above 10 µM and above 10 µM.
Turning to `Cn1cnnc1Sc1ccc(N)c(C(=O)Nc2ccccc2)c1`, the EC50 on Hexokinase-4 [1] and at Hexokinase-4 [2] was above 10 µM each time.
Regarding `Cc1csc(NC(=O)c2cc(Sc3nncn3C)ccc2N)n1`, in data set [3], the Cmax (as a rule, the highest concentration seen after dosing) was found to be 8.5 µM. In the data set with Rattus norvegicus, the Activity result was “Dose-dependent effect”. In addition, the half-life (as a rule, the time needed for the level to fall by half in the phase considered) in data set [4] was 54 min. In data set [5], this compound displayed a clearance of 0.858 L/h/kg. The bioavailability (usually dose-corrected exposure relative to a reference, in per cent) in [6] was determined as 100%. In [7], this compound yielded a Vd of 0.4 L/kg. In [8], the Tmax (commonly the time from dosing to the highest level) is 30 min.
Regarding `Cc1csc(NC(=O)c2cccc(Cl)c2)n1`, the EC50 on Hexokinase-4 [1] came to 17 µM; at Hexokinase-4 [2] it was 6.3 µM.
Consider `CCOc1ccc(N)c(C(=O)Nc2nc(C)cs2)c1`, for which the half-maximal effective concentration (EC50) on Hexokinase-4 [1] amounted to 6.8 µM; on Hexokinase-4 [2] it was 1.7 µM.
The like results for `Cc1csc(NC(=O)c2cc(Sc3ncc[nH]3)ccc2N)n1` were, in that order, 1.6 µM and 0.38 µM.
On the same counts, the results for `Nc1ccccc1C(=O)Nc1nccs1` are above 30 µM and above 30 µM.
On the same counts, the results for `Cc1csc(NC(=O)c2cccc(Sc3nncn3C)c2)n1` are 7.3 µM and 1.5 µM.
For the compound `Cc1csc(NC(=O)c2ccc(Cl)cc2N)n1`, the EC50 at Hexokinase-4 [1] and on Hexokinase-4 [2] was above 30 µM throughout.
Consider `CCSc1ccc(N)c(C(=O)Nc2nc(C)cs2)c1`, for which the results for the EC50 at Hexokinase-4 [1] and on Hexokinase-4 [2] were 0.78 µM and 0.18 µM, respectively.
As to `Nc1ccc(Cl)cc1C(=O)Nc1nccs1`, the EC50 amounted to 11 µM at Hexokinase-4 [1] and 2.6 µM on Hexokinase-4 [2].
Regarding `Cc1csc(NC(=O)c2cc(Sc3nnc[nH]3)ccc2N)n1`, the half-maximal effective concentration (EC50) at Hexokinase-4 [1] turned out to be 2.4 µM; at Hexokinase-4 [2], 0.54 µM.
Turning to `Cc1csc(NC(=O)c2cc(Cl)ccc2N)n1`, the results for the EC50 at Hexokinase-4 [1] and at Hexokinase-4 [2] were 6.5 µM and 1.4 µM, respectively.
The like results for `Cc1nsc(NC(=O)c2cc(Sc3nncn3C)ccc2N)n1` were, in that order, 0.64 µM and 0.18 µM.
Take `Cc1csc(NC(=O)c2cc(Oc3ccc(F)cc3)ccc2N)n1`: the EC50 on Hexokinase-4 [1] turned out to be 1.7 µM; at Hexokinase-4 [2], 0.4 µM.
On to `Cn1cnnc1Sc1ccc(N)c(C(=O)Nc2nccs2)c1`, for which the 50% effective concentration (EC50) at Hexokinase-4 [1] amounted to 0.35 µM; on Hexokinase-4 [2], 0.13 µM.
Turning to `Cc1csc(NC(=O)c2cc(Oc3cccc(F)c3)ccc2N)n1`, the EC50 amounted to 0.6 µM on Hexokinase-4 [1] and 0.14 µM on Hexokinase-4 [2].
The like results for `Cc1csc(NC(=O)c2cc(Oc3ccccc3F)ccc2N)n1` were, in that order, 0.26 µM and 0.1 µM.
For the compound `Cn1cnnc1Sc1ccc(N)c(C(=O)Nc2cccnc2)c1`, the 50% effective concentration (EC50) on Hexokinase-4 [1] and at Hexokinase-4 [2] was above 10 µM in each case.
On to `Cn1cnnc1Sc1ccc(N)c(C(=O)Nc2ccccn2)c1`, for which the EC50 at Hexokinase-4 [1] amounted to 1.2 µM; on Hexokinase-4 [2] it was 0.23 µM.
On the same counts, the results for `Cn1cnnc1Sc1ccc(N)c(C(=O)Nc2nc(CO)cs2)c1` are 1.6 µM and 0.42 µM.
The like results for `Cc1csc(NC(=O)c2cc(Sc3ccccn3)ccc2N)n1` were, in that order, 1.2 µM and 0.22 µM.
With `CCOC(=O)c1csc(NC(=O)c2cc(Sc3nncn3C)ccc2N)n1`, the half-maximal effective concentration (EC50) at Hexokinase-4 [1] was found to be 1.1 µM; on Hexokinase-4 [2] it was 0.42 µM.
The like results for `Cc1csc(NC(=O)c2cc(Sc3nncn3C)ccc2[N+](=O)[O-])n1` were, in that order, above 10 µM and above 10 µM.
For the compound `Cc1csc(NC(=O)c2cc(Oc3ccccc3S(C)(=O)=O)ccc2N)n1`, the values for the EC50 at Hexokinase-4 [1] and on Hexokinase-4 [2] were 0.51 µM and 0.13 µM, respectively.
On the same counts, the results for `COc1ccccc1Oc1ccc(N)c(C(=O)Nc2nc(C)cs2)c1` are 0.41 µM and 0.12 µM.
For `Cc1csc(NC(=O)c2cc(Oc3ccccc3)ccc2N)n1`, the values for the concentration giving a half-maximal response (EC50) at Hexokinase-4 [1] and at Hexokinase-4 [2] were 0.7 µM and 0.13 µM, respectively.
